# Biological target: T1, TLR9 (Homo sapiens, UniProt Q9NR96)
# T1 sequence (Q9NR96 26-1032): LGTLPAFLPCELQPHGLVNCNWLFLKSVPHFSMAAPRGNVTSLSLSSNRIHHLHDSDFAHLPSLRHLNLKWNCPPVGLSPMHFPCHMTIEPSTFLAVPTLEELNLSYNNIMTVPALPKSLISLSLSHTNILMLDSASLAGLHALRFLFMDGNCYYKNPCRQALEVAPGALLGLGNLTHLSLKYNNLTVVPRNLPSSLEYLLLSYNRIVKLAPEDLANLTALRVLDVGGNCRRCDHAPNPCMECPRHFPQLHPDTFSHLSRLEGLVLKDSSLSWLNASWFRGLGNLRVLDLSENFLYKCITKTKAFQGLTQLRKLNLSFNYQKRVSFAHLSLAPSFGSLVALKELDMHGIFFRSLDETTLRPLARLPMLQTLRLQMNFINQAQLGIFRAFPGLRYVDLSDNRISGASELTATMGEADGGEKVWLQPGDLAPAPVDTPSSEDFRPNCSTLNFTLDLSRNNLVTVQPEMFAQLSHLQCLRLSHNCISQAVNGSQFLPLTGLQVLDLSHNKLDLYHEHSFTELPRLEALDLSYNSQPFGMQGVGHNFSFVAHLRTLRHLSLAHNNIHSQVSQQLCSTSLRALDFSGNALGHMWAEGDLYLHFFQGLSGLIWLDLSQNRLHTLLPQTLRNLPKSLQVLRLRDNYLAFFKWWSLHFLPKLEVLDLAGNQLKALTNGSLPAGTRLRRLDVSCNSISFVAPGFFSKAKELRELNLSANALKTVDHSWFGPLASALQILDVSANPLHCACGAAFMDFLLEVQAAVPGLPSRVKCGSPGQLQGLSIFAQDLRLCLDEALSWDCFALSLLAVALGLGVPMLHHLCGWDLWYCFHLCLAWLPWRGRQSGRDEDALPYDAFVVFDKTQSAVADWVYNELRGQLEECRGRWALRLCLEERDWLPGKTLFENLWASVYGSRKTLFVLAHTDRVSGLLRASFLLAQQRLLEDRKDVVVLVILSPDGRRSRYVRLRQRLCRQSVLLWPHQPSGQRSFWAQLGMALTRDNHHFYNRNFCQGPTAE
# Experiment: HEK293-Blue-hTLR-9 cells assay
# Format: cell-based
# Design: host or cells: HEK293 (HEK-Blue hTLR9)
# Conditions: HEK293-Blue-hTLR9 cells, ODN2006 stimulation, 20 hrs, SEAP reporter; read-out: HEK/hTLR9 IC50
# From the text: HEK293-Blue-hTLR-9 Cells Assay:
# A stable HEK293-Blue-hTLR-9 cell line was purchased from InvivoGen (Cat. #: hkb-htlr9, San Diego, Calif., USA). These cells were originally designed for studying the stimulation of human TLR9 by monitoring the activation of NF-κB. A SEAP (secreted embryonic alkaline phosphatase) reporter gene was placed under the control of the IFN-β minimal promoter fused to five NF-κB and AP-1-binding sites. The SEAP was induced by activating NF-κB and AP-1 via stimulating HEK-Blue hTLR9 cells with TLR9 ligands. Therefore the reporter expression was declined by TLR9 antagonist under the stimulation of a ligand, such as ODN2006 (Cat. #: tlr1-2006-1, Invivogen, San Diego, Calif., USA), for incubation of 20 hrs. The cell culture supernatant SEAP reporter activity was determined using QUANTI-Blue™ kit (Cat. #: rep-01, Invivogen, San Diego, Calif., USA) at a wavelength of 640 nm, a detection medium that turns purple or blue in the presence of alkaline phosphatase.
# HEK293-Blue-hTLR9 cells were incubated at a density of 250,000-450,000 cells/mL in a volume of 170 μL in a 96-well plate in Dulbecco's Modified Eagle's medium (DMEM) containing 4.5 g/L glucose, 50 U/mL penicillin, […], 2 mM L-glutamine, 10% (v/v) heat-inactivated fetal bovine serum with addition of 20 μL test compound in a serial dilution in the presence of final DMSO at 1% and 10 μL of 20 uM ODN2006 in above DMEM, perform incubation under 37° C. in a CO2 incubator for 20 hrs. Then 20 μL of the supernatant from each well was incubated with 180 μL Quanti-blue substrate solution at 37° C. for 2 h and the absorbance was read at 620-655 nm using a spectrophotometer. The signaling pathway that TLR9 activation leads to downstream NF-κB activation has been widely accepted, and therefore similar reporter assay was modified for evaluating TLR9 antagonist.
row,SMILES,IC50
1,"C[C@@H]1CN(c2ccc(C#N)c3ncccc23)C[C@H](CN2CC(n3cc4c(n3)CN[C@@H](C)C4)C2)O1 (single isomer, unassigned) [Example 29]",72 nM
2,"C[C@@H]1CN(c2ccc(C#N)c3ncccc23)C[C@H](CN2CC(n3ncc4c3[C@@H](C)NCC4)C2)O1 (single isomer, unassigned) [Example 31]",61 nM
3,"C[C@@H]1CN(c2ccc(C#N)c3ncccc23)C[C@H](CN2CC(n3cc4c(n3)CNCC4)C2)O1 [Example 4, 5-[(2R,6S)-2-methyl-6-[[3-(4,5,6,7-tetrahydropyrazolo[3,4-c]pyridin-2-yl)azetidin-1-yl]methyl]morpholin-4-yl]quinoline-8-carbonitrile]",< 32 nM
4,"CC(C)N1CCc2cn(C3CN(C[C@H]4CN(c5ccc(C#N)c6ncccc56)C[C@@H](C)O4)C3)nc2C1 [Example 9, 5-[(2S,6R)-2-[[3-(6-isopropyl-5,7-dihydro-4H-pyrazolo[3,4-c]pyridin-2-yl)azetidin-1-yl]methyl]-6-methyl-morpholin-4-yl]quinoline-8-carbonitrile]",172 nM
5,"C[C@@H]1CN(c2ccc(C#N)c3ncccc23)C[C@H](CN2CC(n3cc4c(n3)CCN[C@@H]4C)C2)O1 [Example 21, 5-[(2R,6S)-2-methyl-6-[[3-[(4R)-4-methyl-4,5,6,7-tetrahydropyrazolo[4,3-c]pyridin-2-yl]azetidin-1-yl]methyl]morpholin-4-yl]quinoline-8-carbonitrile]",80 nM
6,"C[C@@H]1CN(c2ccc(C#N)c3ncccc23)C[C@H](CN2CC(n3cc4c(n3)CN(C)CC4)C2)O1 [Example 5, 5-[(2R,6S)-2-methyl-6-[[3-(6-methyl-5,7-dihydro-4H-pyrazolo[3,4-c]pyridin-2-yl)azetidin-1-yl]methyl]morpholin-4-yl]quinoline-8-carbonitrile]",137 nM
7,"CCN1CCc2cn(C3CN(C[C@H]4CN(c5ccc(C#N)c6ncccc56)C[C@@H](C)O4)C3)nc2C1 [Example 7, 5-[(2S,6R)-2-[[3-(6-ethyl-5,7-dihydro-4H-pyrazolo[3,4-c]pyridin-2-yl)azetidin-1-yl]methyl]-6-methyl-morpholin-4-yl]quinoline-8-carbonitrile]",116 nM
8,"C[C@@H]1CN(c2ccc(C#N)c3ncccc23)C[C@H](CN2CC(n3cc4c(n3)C(C)(C)CNC4)C2)O1 [Example 24, 5-[(2S,6R)-2-[[3-(7,7-dimethyl-5,6-dihydro-4H-pyrazolo[4,3-c]pyridin-2-yl)azetidin-1-yl]methyl]-6-methyl-morpholin-4-yl]quinoline-8-carbonitrile]",98 nM
9,"Cc1nn(C2CN(C[C@H]3CN(c4ccc(C#N)c5ncccc45)C[C@@H](C)O3)C2)c2c1CN(C)CC2 [Example 14, 5-[(2S,6R)-2-[[3-(3,5-dimethyl-6,7-dihydro-4H-pyrazolo[4,3-c]pyridin-1-yl)azetidin-1-yl]methyl]-6-methyl-morpholin-4-yl]quinoline-8-carbonitrile]",276 nM
10,"Cc1nn(C2CN(C[C@H]3CN(c4ccc(C#N)c5ncccc45)C[C@@H](C)O3)C2)c2c1CCNC2 [Example 42, 5-[(2R,6S)-2-methyl-6-[[3-(3-methyl-4,5,6,7-tetrahydropyrazolo[3,4-c]pyridin-1-yl)azetidin-1-yl]methyl]morpholin-4-yl]quinoline-8-carbonitrile]",134 nM
11,"C[C@@H]1CN(c2ccc(C#N)c3ncccc23)C[C@H](CN2CC(n3cc4c(n3)[C@H](C)NCC4)C2)O1 (single isomer, unassigned) [Example 34]",36 nM
12,"C[C@@H]1CN(c2ccc(C#N)c3ncccc23)C[C@H](CN2CC(n3ncc4c3CN[C@@H](C)C4)C2)O1 (single isomer, unassigned) [Example 27]",65 nM
13,"C[C@@H]1CN(c2ccc(C#N)c3ncccc23)C[C@H](CN2CC(n3ncc4c3CNC4)C2)O1 [Example 10, 5-[(2S,6R)-2-[[3-(5,6-dihydro-4H-pyrrolo[3,4-c]pyrazol-1-yl)azetidin-1-yl]methyl]-6-methyl-morpholin-4-yl]quinoline-8-carbonitrile]",143 nM
14,"C[C@@H]1CN(c2ccc(C#N)c3ncccc23)C[C@H](CN2CC(n3cc4c(n3)CCN[C@H]4C)C2)O1 [Example 23, 5-[(2R,6S)-2-methyl-6-[[3-[(4S)-4-methyl-4,5,6,7-tetrahydropyrazolo[4,3-c]pyridin-2-yl]azetidin-1-yl]methyl]morpholin-4-yl]quinoline-8-carbonitrile]",84 nM
15,"CC(C)N1CCc2cnn(C3CN(C[C@H]4CN(c5ccc(C#N)c6ncccc56)C[C@@H](C)O4)C3)c2C1 [Example 8, 5-[(2S,6R)-2-[[3-(6-isopropyl-5,7-dihydro-4H-pyrazolo[3,4-c]pyridin-1-yl)azetidin-1-yl]methyl]-6-methyl-morpholin-4-yl]quinoline-8-carbonitrile]",125 nM

# Further molecules by falling IC50, results first:
row,IC50,SMILES
1,122 nM,"C[C@@H]1CN(c2ccc(C#N)c3ncccc23)C[C@H](CN2CC(n3cc4c(n3)C[C@H](C)NC4)C2)O1 [Example 19, 5-[(2R,6S)-2-methyl-6-[[3-[(6S)-6-methyl-4,5,6,7-tetrahydropyrazolo[4,3-c]pyridin-2-yl]azetidin-1-yl]methyl]morpholin-4-yl]quinoline-8-carbonitrile]"
2,89 nM,"C[C@@H]1CN(c2ccc(C#N)c3ncccc23)C[C@H](CN2CC(n3cc4c(n3)[C@@H](C)CNC4)C2)O1 (single isomer, unassigned) [Example 26]"
3,82 nM,"C[C@@H]1CN(c2ccc(C#N)c3ncccc23)C[C@H](CN2CC(n3cc4c(n3)[C@H](C)CNC4)C2)O1 (single isomer, unassigned) [Example 25]"
4,82 nM,"C[C@@H]1CN(c2ccc(C#N)c3ncccc23)C[C@H](CN2CCC(n3ncc4c3CCNC4)CC2)O1 [Example 35, 5-[(2R,6S)-2-methyl-6-[[4-(4,5,6,7-tetrahydropyrazolo[4,3-c]pyridin-1-yl)-1-piperidyl]methyl]morpholin-4-yl]quinoline-8-carbonitrile]"
5,78 nM,"Cc1nn(C2CN(C[C@H]3CN(c4ccc(C#N)c5ncccc45)C[C@@H](C)O3)C2)c2c1CNCC2 [Example 12, 5-[(2R,6S)-2-methyl-6-[[3-(3-methyl-4,5,6,7-tetrahydropyrazolo[4,3-c]pyridin-1-yl)azetidin-1-yl]methyl]morpholin-4-yl]quinoline-8-carbonitrile]"
6,71 nM,"C[C@@H]1Cc2cnn(C3CN(C[C@H]4CN(c5ccc(C#N)c6ncccc56)C[C@@H](C)O4)C3)c2CN1 (single isomer, unassigned) [Example 28]"
7,55 nM,"C[C@@H]1CN(c2ccc(C#N)c3ncccc23)C[C@H](CN2CCC(n3cc4c(n3)CCNC4)CC2)O1 [Example 36, 5-[(2R,6S)-2-methyl-6-[[4-(4,5,6,7-tetrahydropyrazolo[4,3-c]pyridin-2-yl)-1-piperidyl]methyl]morpholin-4-yl]quinoline-8-carbonitrile]"
8,34 nM,"C[C@@H]1CN(c2ccc(C#N)c3ncccc23)C[C@H](CN2CC(n3cc4c(n3)[C@@H](C)NCC4)C2)O1 (single isomer, unassigned) [Example 33]"

# From patent US20210300924A1, “5-[6-[[3-(4,5,6,7-TETRAHYDROPYRAZOLO[4,3-C]PYRIDIN-1-YL)AZETIDIN-1-YL]METHYL]MORPHOLIN-4-YL]QUINOLINE-8-CARBONITRILE DERIVATIVES AND SIMILAR COMPOUNDS AS TLR7-9 ANTAGONISTS FOR TREATING SYSTEMIC LUPUS ERYTHEMATOSUS” (Hoffmann-La Roche Inc., priority 2018, published 2021)
